Source: patent publication US20080181971A1, “Combination Cancer Treatments Comprising Elsamitrucin and Other Agents” (priority 2007, published 2008)

System: HCT116 human colon carcinoma
Experiment: HCT116-e256 study: tumor growth delay of subcutaneous HCT116 xenografts in nude mice
Assay type: in vivo
Conditions: for Median TTE (time to endpoint): endpoint 2000 mm^3, control 25.1; for tumor growth delay (TGD): percent of median TTE of untreated group
Protocol: Tumors were measured twice weekly during the experiment, and each animal was euthanized when its tumor reached the endpoint volume of 2000 mm^3 or on the last day of the study (Day 59), whichever came first.
Treatment outcome was assessed by tumor growth delay (TGD), defined as the difference in median time to endpoint tumor burden in a treatment group compared to a control group.
a. Mice. […] The mice were housed on irradiated ALPHA-Dri® Bed-O'Cobs® Laboratory Animal Bedding in static microisolators on a 12-hour light cycle at 21-22° C. (70-72° F.) and 40-60% humidity. Testing facilities complied with the recommendations of the Guide for Care and Use of Laboratory Animals with respect to restraint, husbandry, surgical procedures, feed and fluid regulation, and veterinary care. The animal care and use program at the testing facility is accredited by AAALAC, which assures compliance with accepted standards for the used and care of laboratory animals.
b. Tumor Implantation. […] On the day of tumor implant, the cells were trypsinized, harvested by centrifugation and resuspended in phosphate buffered saline. Each mouse received 5×10^6 HCT116 tumor cells in 0.2 mL implanted subcutaneously in the right flank, and tumor growth was monitored. […] Tumor volume was calculated using the formula: […]
c. Therapeutic Agents. […] The 0.5 mg/mL dosing solution was prepared by 2-fold dilution in distilled water. Both solutions were prepared fresh for each dose administered.
Dosing solutions of 0.75 and 1.5 mg/mL were formulated fresh for each dose by diluting the stock solution ten-fold with D5W.
d. Treatment Plan. […] Note the routes of administration and schedules detailed in Table 10. All doses were given in volumes of 0.2 mL per 20 g of body weight (10 mL/kg), and were scaled to the body weight of the animal.
e. Endpoint. Tumors were measured twice weekly using calipers. Each animal was euthanized when its tumor reached the endpoint size of 2000 mm^3 or at the conclusion of the study on Day 59, whichever came first. The time to endpoint (TTE) for each mouse was calculated from the following equation: […]
where b is the intercept and m is the slope of the line obtained by linear regression of a log-transformed tumor growth data set. The data set was comprised of the first observation that exceeded the study endpoint volume and the three consecutive observations that immediately preceded the attainment of the endpoint volume. […] Animals classified as NTR (non-treatment-related) deaths due to accident (NTRa) or due to unknown causes (NTRu) were excluded from TTE calculations (and all further analyses). Animals classified as TR (treatment-related) deaths or NTRm (non-treatment-related death due to metastasis) were assigned a TTE value equal to the day of death.
Treatment outcome was evaluated by tumor growth delay (TGD), which is defined as the increase in the median time to endpoint (TTE) in a treatment group compared to the control group:
Treatment may cause partial regression (PR) or complete regression (CR) of the tumor in an animal. […] An animal with a CR response at the termination of a study is additionally classified as a tumor-free survivor (TFS). Regression responses were monitored and recorded.
g. Statistical and Graphical Analyses. The Logrank test was used to analyze the significance of the differences between the TTE values of treated and control groups. Two-tailed statistical analyses were conducted at significance level P=0.05.
Median tumor growth curves show group median tumor volumes as a function of time. When an animal exited the study due to tumor size, the final tumor volume recorded for the animal was included with the data used to calculate the group median tumor volume at subsequent time points. Curves were truncated after 50% of the animals in a group had exited the study, or after the second TR death in a group, whichever came first (see the exception in FIG. 8).

[1] = Groups 2,4,6,8,10: elsamitrucin 10 mg/kg ip q4d x3, paclitaxel 15 mg/kg iv qod x5, cisplatin 2.7 mg/kg ip qd x5
[2] = Groups 3,5,7,9,11: elsamitrucin 5 mg/kg ip q4d x3, paclitaxel 7.5 mg/kg iv qod x5, cisplatin […] ip qd x5

| SMILES | % TGD = [(T − C)/C] × 100 [1] [%] | No. of CR (complete regression) [1] | No. of PR (partial regression) [1] | No. of TFS (tumor free survivor) [1] | T − C (difference between median TTE of treated versus control group) [1] [days] | Median TTE (time to endpoint) [1] [days] | % TGD = [(T − C)/C] × 100 [2] [%] | No. of CR (complete regression) [2] | No. of PR (partial regression) [2] | No. of TFS (tumor free survivor) [2] | T − C (difference between median TTE of treated versus control group) [2] [days] | Median TTE (time to endpoint) [2] [days] | tumor growth delay (TGD) (higher dose level) [%] | tumor growth delay (TGD) (lower dose level) [%] | MTV (n) Day 59 (median tumor volume) (Groups 2,4,6,8,10: elsamitrucin 10 mg/kg ip q4d x3, paclitaxel 15 mg/kg iv qod x5, animals remaining on Day 59, n in brackets) | tumor regressions (elsamitrucin monotherapy groups, 10 or 5 mg/kg i.p. q4d x3) | partial regression response (higher dose level, animals of ten) |
| --- | --- | --- | --- | --- | --- | --- | --- | --- | --- | --- | --- | --- | --- | --- | --- | --- | --- |
| N.N.[Cl][Pt][Cl] [Cisplatin, cisplatin] | 23 | 0 | 0 | 0 | 5.7 | 30.8 | 1 | 0 | 0 | 0 | 0.2 | 25.3 | 23 | 1 | – | – | – |
| CO[C@@H]1[C@@H](N)[C@@H](O[C@H]2[C@H](Oc3cccc4c(O)c5c(=O)oc6ccc(C)c7c(=O)oc(c34)c5c67)O[C@H](C)[C@H](O)[C@]2(C)O)O[C@H](C)[C@@H]1O [Elsamitrucin, benzo(h)(1)benzopyrano(5,4,3-cde)(1)ebnzopyran-5,12-dione,10((2-O-(2-amino-2,6-dideoxy-3-O-methyl-alpha-D-galactopyranosyl)-6-deoxy-3-C-methyl-beta-D-galactopyranosyl)oxy)-6-hydroxy-1-methyl] | 8 | 0 | 0 | 0 | 2.0 | 27.1 | 6 | 0 | 0 | 0 | 1.4 | 26.5 | – | – | 88 (1) mm^3 | No tumor regressions | – |
| CC(=O)O[C@H]1C(=O)[C@@]2(C)[C@H]([C@H](OC(=O)c3ccccc3)[C@]3(O)C[C@H](OC(=O)[C@H](O)[C@@H](NC(=O)c4ccccc4)c4ccccc4)C(C)=C1C3(C)C)[C@]1(OC(C)=O)CO[C@@H]1C[C@@H]2O [Paclitaxel, paclitaxel] | 59 | 0 | 1 | 0 | 14.7 | 39.8 | 22 | 0 | 0 | 0 | 5.6 | 30.7 | – | – | – | – | 1/10 |
